Where “and” joins values, the source holds several entries; their conditions need not be identical. Equal entries are not always repeated. Where two headings read alike, the source gives them in different places.
Experiments:
[1] = Metabolic stability in dog liver S9; assay type: in vitro ADME, Beagle dog; details: dog liver S9, 1 μM
Protocol: (§1) Incubation Buffer (PBK): 50 mM potassium phosphate buffer was prepared from 1 M potassium phosphate buffer, pH 7.2. […] The dilution of […] was prepared by 90% methanol/10% DMSO, then 10 μM working solutions were prepared by diluting the 0.1 mM intermediates with 50 mM PBK. […] Prior to use, the stock solutions were brought to room temperature and thoroughly mixed. […] Cofactors Solutions: the mixture of cofactors solution was made at 10 mM of NADPH and 10 mM of UDPGA in PBK buffer.
(§2) The incubation was carried out in 96-well plates. The liver S9 working solutions were added to 96-well plates (80 μL/well) in duplicate. […] Reaction was initiated by adding cofactor mixture 10 μL/well. The plates were incubated at 37° C. in a water bath with shaking. […] The final organic solvent content in the incubation was ≤1%.
(§3) At specified time points, i.e., 5, 10, 20, 30 and 60 minutes, NCF60 (without adding NADPH (Nicotinamide-adenine dinucleotide phosphate, reduced form) and UDPGA (Uridine 5′-diphosphoglucuronic acid trisodium salt) replaced with PBK buffer reaction was stopped by adding three volumes of stop solution. The time zero (To) samples were prepared by adding three volumes of stop solution to liver S9 samples, followed by addition of test article or control, and cofactor mixture solution 10 μL/well.
(§4) Subsequently, 100 μL of supernatant.
(§5) Positive controls: 7-ethoxycoumarin and 7-hydroxycoumarin.

[2] = Metabolic stability in human liver S9; assay type: in vitro ADME; details: human liver S9, 1 μM
Protocol: as §1, §2, §3, §4, §5

[3] = Cellular and nuclear receptor functional assays; assay type: cell-based; details: human recombinant (CHO cells)
Protocol: A study was conducted to test 5 compounds in cellular and nuclear receptor functional and enzyme and uptake assays.
The results are expressed as a percent of control agonist response or inverse agonist response and as a percent inhibition of control agonist response
The EC50 values (concentration producing a half-maximal response) and IC50 values (concentration causing a half-maximal inhibition of the control agonist response) were determined by non-linear regression analysis of the concentration-response curves generated with mean replicate values using Hill equation curve fitting […]
where Y=response, A=left asymptote of the curve, D=right asymptote of the curve, C=compound concentration, and C50=EC50 or IC50, and nH=slope factor. This analysis was performed using software developed at Cerep (Hill software) and validated by comparison with data generated by the commercial software SigmaPlot® 4.0 for Windows® (© 1997 by SPSS Inc.).
For the antagonists, the apparent dissociation constants (KB) were calculated using the modified Cheng Prusoff equation where A=concentration of reference agonist in the assay, and EC50A=EC50 value of the reference agonist.
In Vitro Pharmacology. Results showing an inhibition (or stimulation for assays run in basal conditions) higher than 50% were considered to represent significant effects of the test compounds. Results showing an inhibition (or stimulation) between 25% and 50% are indicative of weak to moderate effects. Results showing an inhibition (or stimulation) lower than 25% were not considered significant and mostly attributable to variability of the signal around the control level.

[4] = target: T1, hNav1.5 (Homo sapiens, UniProt Q14524); assay: Nav1.5 human sodium ion channel cell based automated patch clamp assay (QPatch HT); details: Antagonist
T1 construct: CYL6004QP2DR
T1 sequence (Q14524 whole entry): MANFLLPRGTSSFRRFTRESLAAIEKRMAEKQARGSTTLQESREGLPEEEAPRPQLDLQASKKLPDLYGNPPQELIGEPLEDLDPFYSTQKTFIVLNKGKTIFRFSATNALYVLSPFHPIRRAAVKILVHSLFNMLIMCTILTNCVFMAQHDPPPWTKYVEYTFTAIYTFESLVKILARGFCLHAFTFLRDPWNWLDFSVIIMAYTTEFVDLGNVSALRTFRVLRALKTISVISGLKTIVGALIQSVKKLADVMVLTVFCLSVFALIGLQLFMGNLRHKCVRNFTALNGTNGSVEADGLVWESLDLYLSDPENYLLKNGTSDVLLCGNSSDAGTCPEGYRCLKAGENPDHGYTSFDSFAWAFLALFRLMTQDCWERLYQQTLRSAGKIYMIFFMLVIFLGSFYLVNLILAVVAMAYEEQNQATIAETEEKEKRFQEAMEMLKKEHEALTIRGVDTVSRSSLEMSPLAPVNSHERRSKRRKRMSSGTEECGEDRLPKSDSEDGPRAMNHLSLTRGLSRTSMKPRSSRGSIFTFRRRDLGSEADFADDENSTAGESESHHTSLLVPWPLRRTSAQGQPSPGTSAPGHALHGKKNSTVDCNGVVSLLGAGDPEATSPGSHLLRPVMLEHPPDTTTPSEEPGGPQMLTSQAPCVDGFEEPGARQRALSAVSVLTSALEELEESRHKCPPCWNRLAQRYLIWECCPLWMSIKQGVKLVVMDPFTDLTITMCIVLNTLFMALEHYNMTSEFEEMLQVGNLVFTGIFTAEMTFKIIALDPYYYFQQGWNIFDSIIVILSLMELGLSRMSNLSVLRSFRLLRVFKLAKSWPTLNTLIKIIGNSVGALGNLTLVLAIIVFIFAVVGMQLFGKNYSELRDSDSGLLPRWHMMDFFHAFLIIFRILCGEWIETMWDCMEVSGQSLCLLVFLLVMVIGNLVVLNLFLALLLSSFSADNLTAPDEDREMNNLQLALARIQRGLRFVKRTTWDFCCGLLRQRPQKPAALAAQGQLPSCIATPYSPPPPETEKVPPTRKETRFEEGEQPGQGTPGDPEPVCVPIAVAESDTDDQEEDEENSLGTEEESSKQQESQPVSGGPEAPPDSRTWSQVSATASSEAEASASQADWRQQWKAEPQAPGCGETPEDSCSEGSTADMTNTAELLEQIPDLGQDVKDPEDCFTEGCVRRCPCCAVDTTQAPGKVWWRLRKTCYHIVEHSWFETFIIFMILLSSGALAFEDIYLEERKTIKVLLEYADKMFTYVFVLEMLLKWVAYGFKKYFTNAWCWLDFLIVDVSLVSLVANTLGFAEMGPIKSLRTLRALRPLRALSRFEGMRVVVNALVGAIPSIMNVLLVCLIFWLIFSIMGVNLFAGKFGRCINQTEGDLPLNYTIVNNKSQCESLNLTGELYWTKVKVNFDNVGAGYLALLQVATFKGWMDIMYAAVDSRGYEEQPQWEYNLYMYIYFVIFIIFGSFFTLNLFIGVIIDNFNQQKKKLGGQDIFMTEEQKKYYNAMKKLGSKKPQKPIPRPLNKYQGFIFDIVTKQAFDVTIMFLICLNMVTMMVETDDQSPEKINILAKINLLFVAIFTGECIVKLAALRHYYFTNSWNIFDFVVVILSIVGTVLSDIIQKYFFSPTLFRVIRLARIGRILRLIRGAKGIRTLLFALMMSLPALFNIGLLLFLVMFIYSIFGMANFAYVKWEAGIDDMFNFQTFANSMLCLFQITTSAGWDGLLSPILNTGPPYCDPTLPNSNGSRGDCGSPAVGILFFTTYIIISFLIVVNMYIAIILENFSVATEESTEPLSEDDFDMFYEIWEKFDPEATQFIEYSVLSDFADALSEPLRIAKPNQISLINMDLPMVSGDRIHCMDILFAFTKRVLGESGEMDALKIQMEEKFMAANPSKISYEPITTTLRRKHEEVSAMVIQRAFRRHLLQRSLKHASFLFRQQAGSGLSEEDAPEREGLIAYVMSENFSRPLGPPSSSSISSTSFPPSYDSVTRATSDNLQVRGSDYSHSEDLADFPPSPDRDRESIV
Protocol: Electrophysiological assays were conducted to profile five compounds for activities on the ion channel target using the QPatch HT electrophysiological platform.
CYL6004QP2DR Nav1.5 Human Sodium Ion Channel Cell Based Automated Patch Clamp Assay. Cells were held at −120 mV for 100 ms, stepped to −130 mV for 100 ms, and stepped back to −120 mV for 100 ms to measure the leak current. Na channels exist in a) resting or closed state at −120 mV, b) a transient open state that inactivates to c) inactivated state at −10 mV. Na current inhibition within 1-2 ms of channel opening at −10 mV is open channel inhibition (pulse 1). […] Pulse 1 and 2 are used to investigate drug binding to the open state and inactivated state of the Na channels, respectively. Each concentration of compound was applied for 5 minutes.
Current amplitudes more than 200 pA at the control stage were analyzed. The amplitude of the current was calculated by measuring the difference between the peak inward current on stepping to −10 mV (i.e. peak of the current) and remaining current at the end of the step. The current was assessed in vehicle control conditions and then at the end of each five (5) minute compound application.

[5] = Protein binding in CD-1 mouse plasma (equilibrium dialysis); details: dialysis conditions; no binding reported
[6] = Tissue binding in CD-1 mouse brain homogenate (equilibrium dialysis); details: 2 μM
[7] = mouse brain homogenate, 4 hr dialysis (COMPOUND A 1 hr)

Compound: CCOc1ccccc1OC[C@@H]1CN(C(=O)OC(OC(=O)[C@@H](N)C(C)C)C(C)C)CCO1 (stereo partly drawn) [COMPOUND B]
- half-life at 1 μM ([1]; Beagle, pH 7.2): 7.3 min
- microsomal CLint at 1 μM ([1]; Beagle, pH 7.2, read-out: CLint(LS9)): 190 µL/min/mg
- % Remaining ([1]; 0 min): 100%
- Analyte Peak area/IS Peak area Mean × 100 (n = 2) ([1]; 0 min): 7.78
- % Remaining ([1]; 5 min): 2.9%
- Analyte Peak area/IS Peak area Mean × 100 (n = 2) ([1]; 5 min): 0.226
- % Remaining ([1]; 10 min): 4.0%
- Analyte Peak area/IS Peak area Mean × 100 (n = 2) ([1]; 10 min): 0.309
- % Remaining ([1]; 20 min): 2.1%
- Analyte Peak area/IS Peak area Mean × 100 (n = 2) ([1]; 20 min): 0.166
- % Remaining ([1]; 30 min): 0.5%
- Analyte Peak area/IS Peak area Mean × 100 (n = 2) ([1]; 30 min): 0.035
- % Remaining ([1]; 60 min): 0.09% and 0.1%
- Analyte Peak area/IS Peak area Mean × 100 (n = 2) ([1]; 60 min): 0.007
- % Remaining ([1]; NCF60 (no cofactors, 60 min)): 0.0%
- Analyte Peak area/IS Peak area Mean × 100 (n = 2) ([1]; NCF60 (no cofactors, 60 min)): 0.000
- % Remaining ([2]; 0 min): 100%
- Analyte Peak area/IS Peak area Mean × 100 (n = 2) ([2]; 0 min): 8.22
- % Remaining ([2]; 5 min): 14%
- Analyte Peak area/IS Peak area Mean × 100 (n = 2) ([2]; 5 min): 1.12
- % Remaining ([2]; 10 min): 12%
- Analyte Peak area/IS Peak area Mean × 100 (n = 2) ([2]; 10 min): 0.973
- % Remaining ([2]; 20 min): 4.2%
- Analyte Peak area/IS Peak area Mean × 100 (n = 2) ([2]; 20 min): 0.342
- % Remaining ([2]; 30 min): 1.6%
- Analyte Peak area/IS Peak area Mean × 100 (n = 2) ([2]; 30 min): 0.131
- % Remaining ([2]; 60 min): 0.24% and 0.2%
- Analyte Peak area/IS Peak area Mean × 100 (n = 2) ([2]; 60 min): 0.020
- % Remaining ([2]; NCF60 (no cofactors, 60 min)): 1.2%
- Analyte Peak area/IS Peak area Mean × 100 (n = 2) ([2]; NCF60 (no cofactors, 60 min)): 0.099
- half-life at 1 μM ([2]; pH 7.2): 7.74 min
- microsomal CLint at 1 μM ([2]; pH 7.2, read-out: CLint(LS9)): 179 µL/min/mg
- Kb ([3]; apparent dissociation constant, modified Cheng Prusoff equation, read-out: kB, 5-HT2B(h) (antagonist effect)): 2.1 µM
- IC50 ([3]; serotonin (30 nM), IP1, HTRF, read-out: IC50, 5-HT2B(h) (antagonist effect)): 14 µM
- IC50 ([4]; Pulse 1 (open state), read-out: Estimated IC50 (Pulse 1)): > 100 µM
- IC50 ([4]; Pulse 2 (inactivated state), read-out: Estimated IC50 (Pulse 2)): 7.6 µM
- stability in the mouse plasma [5]: instability
- stability in mouse brain homogenate ([6]; dialysis conditions): unstable
- % Unbound Experimental ([6]; mouse brain homogenate, 4 hr): 15.5%
- Analyte Peak area/IS Peak area CD (brain homogenate side) [6, 7]: 0.009 and 0.010
- Analyte Peak area/IS Peak area CR (buffer side) [6, 7]: 0.001 and 0.002
- Analyte Peak area/IS Peak area Co (time zero) ([6]; mouse brain homogenate, time zero): 0.057 and 0.059 and 0.064
